# According to US9006450B2 (Boehringer Ingelheim International GmbH, priority 2010, dated 2015):
# Target: T1, human ACC2 (Homo sapiens, UniProt O00763)
# T1 construct: made in house; host or cells: insect cells (baculoviral expression system)
# Experiment: ACC2 assay, spectrophotometric 384 well assay (NADH-linked, coupled lactate dehydrogenase/pyruvate kinase)
# Assay type: biochemical
# Details: ACC2 assay, hACC2 construct lacking 128 N-terminal amino acids, 25° C., 340 nm; read-out: IC50
# Protocol: Spectrophotometric 384 Well Assay
# Malonyl CoA formation by acetyl CoA carboxylases is stoichometrically linked to the consumption of ATP. ACC2 activity is measured in a NADH-linked kinetic method measuring ADP generated during the ACC reaction using a coupled lactate dehydrogenase/pyruvate kinase reaction.
# For biological testing, a human ACC2 construct which lacks the 128 amino acids at the N-terminus for increased solubility (nt 385-6966 in Genbank entry AJ575592) is cloned. The protein is then expressed in insect cells using a baculoviral expression system. Protein purification is performed by anion exchange.
# All compounds are dissolved in dimethyl sulfoxide (DMSO) to a concentration of 10 mM.
# Assay reactions are then carried out in 384-well plates, with hACC2 in an appropriate dilution and at final assay concentrations (f.c.) of 100 mM Tris (pH 7.5), 10 mM trisodium citrate, 25 mM KHCO3, 10 mM MgCl2, 0.5 mg/mL BSA, 3.75 mM reduced L-glutathione, 15 U/mL lactate dehydrogenase, 0.5 mM phosphoenolpyruvate, 15 U/mL pyruvate kinase, compounds at different concentrations at final DMSO concentrations of 1%.
# The enzymatic reaction is then started by addition of a mixture of NADH, acetyl Coenzyme A (both 200 μM f.c.) and ATP (500 uM f.c.). The decrease of the optical density (slope S) is then determined at 25° C. at a wavelength of 340 nm over 15 minutes in a spectrophotometric reader.
# Each assay microtiter plate contains wells with vehicle instead of compound as controls for the non-inhibited enzyme (100% CTL; ‘HIGH’) and wells without acetyl-CoA as controls for non-specific NADH degradation (0% CTL; ‘LOW’).
# The slope S is used for calculation of % CTL=(S(compound)−S('LOW'))/(S('HIGH')−S('LOW'))*100. Compounds will give values between 100% CTL (no inhibition) and 0% CTL (complete inhibition).
# For IC50 value determination, the sample slope in the presence of the test compound after subtraction of the low controls (S(compound)−S('LOW')) are used.
# An IC50 value is derived from the compound slopes at different dosages after subtraction of the low controls (S(compound)−S('LOW')) by non-linear regression curve fitting (equation y=(A+((B−A)/(1+((C/x)^D))))).
# T1 sequence (O00763 129-2458 limits assumed): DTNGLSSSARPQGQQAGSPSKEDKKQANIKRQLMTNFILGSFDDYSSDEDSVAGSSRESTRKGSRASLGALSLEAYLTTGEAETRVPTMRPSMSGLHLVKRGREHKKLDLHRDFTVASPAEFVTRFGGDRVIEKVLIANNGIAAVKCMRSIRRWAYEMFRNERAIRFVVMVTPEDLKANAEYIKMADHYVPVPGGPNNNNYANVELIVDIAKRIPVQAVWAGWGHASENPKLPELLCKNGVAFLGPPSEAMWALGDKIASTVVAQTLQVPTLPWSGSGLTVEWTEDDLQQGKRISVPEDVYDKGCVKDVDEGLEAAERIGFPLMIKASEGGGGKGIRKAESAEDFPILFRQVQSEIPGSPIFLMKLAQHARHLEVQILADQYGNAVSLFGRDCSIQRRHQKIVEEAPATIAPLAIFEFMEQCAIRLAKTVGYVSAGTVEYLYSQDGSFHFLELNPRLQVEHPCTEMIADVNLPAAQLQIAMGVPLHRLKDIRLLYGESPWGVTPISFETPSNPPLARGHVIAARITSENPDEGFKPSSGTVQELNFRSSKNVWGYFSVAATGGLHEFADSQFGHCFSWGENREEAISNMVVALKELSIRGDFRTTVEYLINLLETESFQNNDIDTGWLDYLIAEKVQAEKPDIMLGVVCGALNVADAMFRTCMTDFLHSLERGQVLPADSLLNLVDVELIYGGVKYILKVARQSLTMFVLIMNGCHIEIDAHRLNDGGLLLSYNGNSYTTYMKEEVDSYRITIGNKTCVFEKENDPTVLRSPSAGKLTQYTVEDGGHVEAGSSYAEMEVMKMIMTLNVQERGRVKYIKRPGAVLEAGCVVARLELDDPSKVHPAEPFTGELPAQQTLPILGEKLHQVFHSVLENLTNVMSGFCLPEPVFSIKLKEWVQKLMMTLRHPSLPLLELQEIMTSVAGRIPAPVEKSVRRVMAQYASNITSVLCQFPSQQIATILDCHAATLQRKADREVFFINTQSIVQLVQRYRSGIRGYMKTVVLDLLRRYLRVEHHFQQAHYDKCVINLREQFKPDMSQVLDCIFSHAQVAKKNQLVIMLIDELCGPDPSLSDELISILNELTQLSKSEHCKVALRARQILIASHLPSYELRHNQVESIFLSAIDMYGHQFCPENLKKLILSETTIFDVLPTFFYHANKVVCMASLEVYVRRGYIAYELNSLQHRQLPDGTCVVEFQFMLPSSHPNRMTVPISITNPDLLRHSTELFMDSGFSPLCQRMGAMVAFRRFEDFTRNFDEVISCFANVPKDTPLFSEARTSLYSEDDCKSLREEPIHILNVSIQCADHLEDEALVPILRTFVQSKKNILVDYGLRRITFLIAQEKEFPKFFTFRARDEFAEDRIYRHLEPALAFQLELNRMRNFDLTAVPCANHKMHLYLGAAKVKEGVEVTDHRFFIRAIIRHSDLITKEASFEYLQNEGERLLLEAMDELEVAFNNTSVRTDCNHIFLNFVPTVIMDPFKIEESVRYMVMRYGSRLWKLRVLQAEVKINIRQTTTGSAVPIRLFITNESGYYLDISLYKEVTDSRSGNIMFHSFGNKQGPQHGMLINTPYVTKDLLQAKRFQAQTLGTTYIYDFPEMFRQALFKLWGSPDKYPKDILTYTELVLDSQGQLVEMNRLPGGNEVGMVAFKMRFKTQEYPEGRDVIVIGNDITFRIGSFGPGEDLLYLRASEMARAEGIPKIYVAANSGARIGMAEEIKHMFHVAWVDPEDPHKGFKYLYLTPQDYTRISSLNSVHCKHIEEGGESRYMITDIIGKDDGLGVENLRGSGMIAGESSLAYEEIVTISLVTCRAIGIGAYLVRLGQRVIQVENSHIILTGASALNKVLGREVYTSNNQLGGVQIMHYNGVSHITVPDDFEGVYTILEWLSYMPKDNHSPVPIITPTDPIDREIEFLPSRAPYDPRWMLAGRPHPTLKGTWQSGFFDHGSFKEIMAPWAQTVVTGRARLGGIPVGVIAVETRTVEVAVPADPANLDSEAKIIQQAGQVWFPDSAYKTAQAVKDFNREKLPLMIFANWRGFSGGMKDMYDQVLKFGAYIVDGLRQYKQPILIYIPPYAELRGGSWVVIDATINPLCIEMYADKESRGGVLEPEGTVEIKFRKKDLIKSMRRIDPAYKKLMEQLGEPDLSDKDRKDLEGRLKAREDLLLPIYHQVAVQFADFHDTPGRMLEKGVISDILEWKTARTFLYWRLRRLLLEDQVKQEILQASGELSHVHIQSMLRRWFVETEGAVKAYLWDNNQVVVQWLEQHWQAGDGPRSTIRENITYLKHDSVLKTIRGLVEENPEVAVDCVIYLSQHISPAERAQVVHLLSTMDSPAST
row,Structure (SMILES),IC50 [nM]
1,"CCOc1ccc(N2CCC(c3ccc([C@H](C)NC(C)=O)cc3)CC2)cc1 [Example 1.1, (S)—N-(1-{4-[1-(4-Ethoxy-phenyl)-piperidin-4-yl]-phenyl}-ethyl)-acetamide]",130
2,CC(=O)N[C@@H](C)c1ccc(C2CCN(c3ccc(OC4CCCC4)cc3)CC2)cc1 [Example 1.2],50
3,CCCCOc1ccc(N2CCC(c3ccc([C@H](C)NC(C)=O)cc3)CC2)cc1 [Example 1.3],90
4,CCOc1ccc(N2CCC(c3ccc([C@H](C)NC(C)=O)cc3)CC2)cn1 [Example 1.4],320
5,CCOc1ccc(N2CCC(c3ccc([C@H](C)NC(=O)OC)cc3)CC2)cc1 [Example 1.5],350
6,CCC(C)Oc1ccc(N2CCC(c3ccc([C@H](C)NC(=O)N(C)C)cc3)CC2)cc1 (some centres unmarked) [Example 1.7],140
7,CCCOc1ccc(N2CCC(c3ccc([C@H](C)NC(=O)N(C)C)cc3)CC2)cc1 [Example 1.8],120
8,C[C@H](NC(=O)C1CC1)c1ccc(C2CCN(c3ccc(OC4CCC4)cc3)CC2)cc1 [Example 1.9],50
9,CCC(C)Oc1ccc(N2CCC(c3ccc([C@H](C)NC(=O)C4CC4)cc3)CC2)cc1 (some centres unmarked) [Example 1.10],220
10,CCOc1cc(N2CCC(c3ccc([C@H](C)NC(=O)OC)cc3)CC2)ccn1 [Example 1.11],300
11,COC(=O)N[C@@H](C)c1ccc(C2CCN(c3ccc(OC4CCC4)cc3)CC2)cc1 [Example 1.12],80
12,CCCOc1ccc(N2CCC(c3ccc([C@H](C)NC(=O)OC)cc3)CC2)cc1 [Example 1.13],100
13,C[C@H](NC(=O)C1CC1)c1ccc(C2CCN(c3ccc(OC4CC4)cc3)CC2)cc1 [Example 1.14],100
14,CCC(C)Oc1ccc(N2CCC(c3ccc([C@H](C)NC(=O)OC)cc3)CC2)cc1 (some centres unmarked) [Example 1.15],240
15,C[C@H](NC(=O)C1CC1)c1ccc(C2CCN(c3ccc(OCC4CC4)cc3)CC2)cc1 [Example 1.16],90
16,COC(=O)N[C@@H](C)c1ccc(C2CCN(c3ccc4c(c3)OCCO4)CC2)cc1 [Example 1.17],450
17,C[C@H](NC(=O)C1CC1)c1ccc(C2CCN(c3ccc4c(c3)OCCO4)CC2)cc1 [Example 1.19],260
18,CCOc1cc(N2CCC(c3ccc([C@H](C)NC(=O)C4CC4)cc3)CC2)ccn1 [Example 1.20],290
19,C[C@H](NC(=O)N(C)C)c1ccc(C2CCN(c3ccc(OC4CCC4)cc3)CC2)cc1 [Example 1.21],80

row,Structure (SMILES),IC50 [nM]
1,COC(=O)N[C@@H](C)c1ccc(C2CCN(c3ccc(OCC4CC4)cc3)CC2)cc1 [Example 1.22],140
2,CCCOc1ccc(N2CCC(c3ccc([C@H](C)NC(=O)C4CC4)cc3)CC2)cc1 [Example 1.23],50
3,C[C@H](NC(=O)N(C)C)c1ccc(C2CCN(c3ccc(OCC4CC4)cc3)CC2)cc1 [Example 1.24],210
4,CCOc1ccc(N2CCC(c3ccc([C@H](C)NC(=O)C4CC4)cc3)CC2)cc1 [Example 1.25],150
5,"CC(=O)N[C@@H](C)c1ccc(C2CCN(c3cccc(O)c3)CC2)cc1 [Example 1.27, (S)—N-{1-(4-[1-(3-hydroxyphenyl)-piperidin-4-yl]-phenyl}-ethyl)-acetamide]",5800
6,CCC(C)Oc1ccc(N2CCC(c3ccc([C@H](C)NC(C)=O)cc3)CC2)cc1 (some centres unmarked) [Example 1.29],80
7,COc1ccc(N2CCC(c3ccc([C@H](C)NC(C)=O)cc3)CC2)cc1 [Example 1.30],230
8,CCCOc1ccc(N2CCC(c3ccc([C@H](C)NC(C)=O)cc3)CC2)c(OC)c1 [Example 1.31],180
9,CCCOc1ccc(N2CCC(c3ccc([C@H](C)NC(C)=O)cc3)CC2)c(C)c1 [Example 1.32],90
10,CCCOc1ccc(N2CCC(c3ccc([C@H](C)NC(C)=O)cc3)CC2)c(Cl)c1 [Example 1.33],120
11,COc1ccc(N2CCC(c3ccc([C@H](C)NC(C)=O)cc3)CC2)c(C#N)c1 [Example 1.34],260
12,COc1cc(OC(C)C)ccc1N1CCC(c2ccc([C@H](C)NC(C)=O)cc2)CC1 [Example 1.35],320
13,COc1cc(OCC2CC2)ccc1N1CCC(c2ccc([C@H](C)NC(C)=O)cc2)CC1 [Example 1.36],410
14,COc1cc(OC2CCC2)ccc1N1CCC(c2ccc([C@H](C)NC(C)=O)cc2)CC1 [Example 1.37],110
15,CCC(C)Oc1ccc(N2CCC(c3ccc([C@H](C)NC(C)=O)cc3)CC2)c(OC)c1 (some centres unmarked) [Example 1.39],130
16,CC(=O)N[C@@H](C)c1ccc(C2CCN(c3ccc4c(c3)OCCO4)CC2)cc1 [Example 1.40],140
17,COc1ccc(N2CCC(c3ccc([C@H](C)NC(C)=O)cc3)CC2)c(OC)c1 [Example 1.41],320
18,CCOc1ccc(N2CCC(c3ccc([C@H](C)NC(C)=O)cc3)CC2)c(OCC)c1 [Example 1.42],630
19,COc1ccc(N2CCC(c3ccc([C@H](C)NC(C)=O)cc3)CC2)cc1OC [Example 1.43],4100

row,Structure (SMILES),IC50 [nM]
1,CC(=O)N[C@@H](C)c1ccc(C2CCN(c3ccc4c(c3)OCCCO4)CC2)cc1 [Example 1.44],180
2,CC(=O)N[C@@H](C)c1ccc(C2CCN(c3ccccc3)CC2)cc1 [Example 1.45],370
3,CC(=O)N[C@@H](C)c1ccc(C2CCN(c3ccc(Cl)cc3)CC2)cc1 [Example 1.46],700
4,CCOc1ccc(N2CCC(c3ccc([C@H](C)NC(C)=O)cc3)CC2)cc1OCC [Example 1.47],2900
5,"CC(=O)N[C@@H](C)c1ccc(C2CCN(c3ccc(O)cc3)CC2)cc1 [Example 1.48, (S)—N-{1-(4-[1-(4-Hydroxyphenyl)-piperidin-4-yl]-phenyl}-ethyl)-acetamide]",11300
6,CC(=O)N[C@@H](C)c1ccc(C2CCN(c3ccc(OC(C)C)cc3C#N)CC2)cc1 [Example 1.50],120
7,CC(=O)N[C@@H](C)c1ccc(C2CCN(c3ccc(OC4CCC4)cc3C#N)CC2)cc1 [Example 1.51],90
8,CC(=O)N[C@@H](C)c1ccc(C2CCN(c3ccc(C(C)C)cc3)CC2)cc1 [Example 1.52],110
9,COc1ccc(N2CCC(c3ccc([C@H](C)NC(C)=O)cc3)CC2)cn1 [Example 1.53],820
10,CC(=O)N[C@@H](C)c1ccc(C2CCN(c3ccc(OCc4ccccc4)nc3)CC2)cc1 [Example 1.54],130
11,CCCOc1ccc(N2CCC(c3ccc([C@H](C)NC(C)=O)cc3)CC2)cn1 [Example 1.55],240
12,COc1cc(C)c(N2CCC(c3ccc([C@H](C)NC(C)=O)cc3)CC2)cn1 [Example 1.56],720
13,Cc1cc(OC2CC2)ccc1N1CCC(c2ccc([C@H](C)NC(=O)N(C)C)cc2)CC1 [Example 1.57],100
14,C[C@H](NC(=O)N(C)C)c1ccc(C2CCN(c3ccc4c(c3)OCC(C)(C)CO4)CC2)cc1 [Example 1.58],120
15,CC(=O)N[C@@H](C)c1ccc(C2CCN(c3ccc(OCC4CC4)nc3)CC2)cc1 [Example 1.59],140
16,CC(=O)N[C@@H](C)c1ccc(C2CCN(c3ccc(OC(C)C)nc3)CC2)cc1 [Example 1.60],180
17,CC(=O)N[C@@H](C)c1ccc(C2CCN(c3ccc4c(c3)OCC(C)(C)CO4)CC2)cc1 [Example 1.61],210
18,CC(=O)N[C@@H](C)c1ccc(C2CCN(c3ccc(OC4CCC4)nc3)CC2)cc1 [Example 1.62],200
